Here are results for one molecule from patent US20060159776A1, “Compositions comprising components coated with a liquid impermeable but gas permeable layer, use thereof for treating cutaneous and other exocrine gland diseases” (priority 2003, published 2006).

The structures appear in SMILES notation. Entries after “also recorded” stand apart in the source; their conditions may differ.

For this data set, the system named is adults suffering from diabetes type 2. The data set can be described thus: Four-week substitution trial in adults with diabetes type 2 controlled by metformin alone.

Turning to `CN(C)C(=N)N=C(N)N` [metformin, Metformin], the “fasting plasma glucose (FPG) control” value (before the trial, on regular metformin 500 mg twice daily to 850 mg three times daily, five adults) is “below 8 mmol/l”. Also, the “side-effects of taking metformin” value (regular metformin, metallic taste three of five, abdominal discomfort all five) is recorded as “metallic taste in the mouth occasionally; also recorded: occasional abdominal discomfort”.
